From US20220243210A1, “ANGIOTENSIN II TYPE 1 RECEPTOR TARGETED OLIGONUCLEOTIDES AND USES THEREOF” (Ionis Pharmaceuticals, Inc., priority 2019, published 2022)
Oligonucleotides are written 5' to 3', each unit as a sugar letter and its base; * is a phosphorothioate linkage, no mark a phosphodiester; rarer units and linkages stand in square brackets, end groups in braces. Plain capitals give the bases only. k = constrained ethyl (cEt); [5mC] = 5-methylcytosine; d = 2'-deoxy (DNA)

Legend:
human AGTR1 = target: T1, human AGTR1 (Homo sapiens, UniProt P30556); test: AGTR1 signaling, IP-One Gq kit (IP1 accumulation), HEK-AGTR1 FAP cells; type: cell-based; settings: 90 minutes
T1 construct: host or cells: HEK293 (HEK-AGTR1 FAP cells)
T1 sequence (P30556 1-359): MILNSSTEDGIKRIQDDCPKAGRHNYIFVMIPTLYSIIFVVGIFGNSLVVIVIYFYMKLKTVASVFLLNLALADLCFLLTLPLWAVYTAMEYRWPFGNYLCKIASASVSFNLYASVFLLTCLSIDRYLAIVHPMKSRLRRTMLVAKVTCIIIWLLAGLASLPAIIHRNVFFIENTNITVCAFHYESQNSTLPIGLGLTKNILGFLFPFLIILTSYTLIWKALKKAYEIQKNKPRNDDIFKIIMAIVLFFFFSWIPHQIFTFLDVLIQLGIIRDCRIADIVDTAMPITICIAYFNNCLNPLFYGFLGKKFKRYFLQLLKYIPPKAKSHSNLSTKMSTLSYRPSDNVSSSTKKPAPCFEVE
Experimental: (§1) Activated AGTR1 couples to the Gαq subunit of heterotrimeric G proteins, which activates the phospholipase C (PLC) and subsequently inositol 1,4,5-trisphosphate (IP3) signaling cascade. AGTR1 signaling was measured using an IP-One Gq kit (cisbio #62IPAPEB). The kit detects the accumulation of inositol monophosphate (IP1), a stable downstream metabolite of IP3 induced by activation of a phospholipase C (PLC) cascade.
An additional control compound, AngII, which consists of the peptide motif […], was also tested. […] AGTR1 activation was measured using the IP-One Gq kit.

human MALAT1 RNA [1] = test: MALAT1 RNA reduction in HEK-AGTR1 FAP cells, free uptake, 48 hours; type: cell-based; settings: 48 hours; for MALAT (% control): relative to untreated control cells
Experimental: At the end of the treatment period, total RNA was isolated from the cells and MALAT1 RNA levels were measured by quantitative real-time PCR. […] MALAT1 RNA levels were normalized according to total RNA content, as measured by RIBOGREEN®. […] The half maximal inhibitory concentration (IC50) of each modified oligonucleotide was calculated using a non-linear fit [inhibitor] vs. response-variable slope (three parameters) formula in GraphPad Prism 7.01.

HEK-APLNR FAP cells = test: IP1 accumulation negative control in HEK-APLNR FAP cells (do not express AGTR1); type: cell-based, human; settings: 24 hours
Experimental: as §1
As a negative control, Compound Nos. 556089 and 1229761 were also tested in HEK293 cells expressing FAP tagged human Apelin receptor (HEK-APLNR FAP cells from Spectragenetics). […] HEK-APLNR FAP cells were cultured with Compound Nos. 556089 and 1229761, described herein above, at the concentrations detailed in Table 2 for 24 hours.

mouse MALAT RNA = test: MALAT RNA reduction in vivo, C57BL6/J mice, multiple dose; settings: for ED50: IV day 0, 4, 8
Experimental: Compound Nos. 556089, 1229761, and 1229762 are described in Table 1 above. Compound Nos. 556089, 1229761, and 1229762 were tested in C57BL6/J mice. The mice were divided into groups of 4 mice each. […] The mice were then sacrificed on day 12. Heart, adipose, adrenal, kidney, and liver tissue was then collected and homogenized and RNA analysis was performed. A group of 4 mice received PBS as a negative control.
RNA was extracted from heart, adipose, adrenal, kidney, and liver tissue for real-time PCR analysis of measurement of RNA expression of MALAT using primer probe set mMALAT1 #2 (forward sequence […] (SEQ ID NO: 5); reverse sequence […] (SEQ ID NO: 6); probe sequence […] (SEQ ID NO: 7)). Results are presented as percent change of RNA, relative to PBS control, normalized to mouse GAPDH.

human MALAT1 RNA [2] = test: MALAT1 RNA reduction in HEK-AGTR1 FAP cells, free uptake, 24 hours; type: cell-based; settings: 24 hours; for MALAT (% control): relative to untreated control cells
Experimental: At the end of the treatment period, total RNA was isolated from the cells and MALAT1 RNA levels were measured by quantitative real-time PC&. […] MALAT1 RNA levels were normalized according to total RNA content, as measured by RIBOGREEN®. Reduction of MALAT1 RNA is presented Table 3 below as percent MALAT1 RNA amount relative to untreated control (UTC) cells. The half maximal inhibitory concentration (IC50) of each modified oligonucleotide was calculated using a non-linear fit [inhibitor] vs. response—variable slope (four parameters) formula in GraphPad Prism 7.01.

Compound No. 556089: Control unconjugated parent modified oligonucleotide GCATTCTAATAGCAGC, cEt gapmer, phosphorothioate, complementary to mouse MALAT1 RNA (kG*k[5mC]*kA*dT*dT*d[5mC]*dT*dA*dA*dT*dA*dG*d[5mC]*kA*kG*k[5mC]) [reference compound]
IP1 accumulation (human AGTR1; 0.0256 nM): 696 nM
IP1 accumulation (human AGTR1; 0.128 nM): 669 nM
IP1 accumulation (human AGTR1; 0.64 nM): 692 nM
IP1 accumulation (human AGTR1; 3.2 nM): 658 nM
IP1 accumulation (human AGTR1; 16 nM): 646 nM
IP1 accumulation (human AGTR1; 80 nM): 605 nM
IP1 accumulation (human AGTR1; 400 nM): 648 nM
IP1 accumulation (human AGTR1; 2000 nM): 672 nM
MALAT (% control) (human MALAT1 RNA [1]; 2.7 nM): 97 % control
MALAT (% control) (human MALAT1 RNA [1]; 8.2 nM): 100 % control
MALAT (% control) (human MALAT1 RNA [1]; 24.7 nM): 104 % control
MALAT (% control) (human MALAT1 RNA [1]; 74.1 nM): 99 % control
MALAT (% control) (human MALAT1 RNA [1]; 222.2 nM): 82 % control
MALAT (% control) (human MALAT1 RNA [1]; 666.7 nM): 68 % control
MALAT (% control) (human MALAT1 RNA [1]; 2000 nM): 43 % control
MALAT (% control) (human MALAT1 RNA [1]; 6000 nM): 25 % control
MALAT (% control) (human MALAT1 RNA [1]; .10 nM): 104 % control
MALAT (% control) (human MALAT1 RNA [1]; .3 nM): 106 % control
MALAT (% control) (human MALAT1 RNA [1]; .9 nM): 101 % control
IC50 (human MALAT1 RNA [1]; MALAT1 RNA, three parameter fit): 1.53 µM
IP1 accumulation (HEK-APLNR FAP cells; 0.0256 nM): 584 nM
IP1 accumulation (HEK-APLNR FAP cells; 0.128 nM): 536 nM
IP1 accumulation (HEK-APLNR FAP cells; 0.64 nM): 563 nM
IP1 accumulation (HEK-APLNR FAP cells; 3.2 nM): 538 nM
IP1 accumulation (HEK-APLNR FAP cells; 16 nM): 526 nM
IP1 accumulation (HEK-APLNR FAP cells; 80 nM): 514 nM
IP1 accumulation (HEK-APLNR FAP cells; 400 nM): 553 nM
IP1 accumulation (HEK-APLNR FAP cells; 2000 nM): 542 nM
MALAT-1 RNA (% control) (mouse MALAT RNA; Adipose, 0.4 μmol/kg IV day 0, 4, 8, sacrifice day 12, relative to PBS): 68.4 % control
MALAT-1 RNA (% control) (mouse MALAT RNA; Adipose, 1.2 μmol/kg IV day 0, 4, 8, sacrifice day 12, relative to PBS): 41.1 % control
MALAT-1 RNA (% control) (mouse MALAT RNA; Adipose, 3.6 μmol/kg IV day 0, 4, 8, sacrifice day 12, relative to PBS): 27.3 % control
ED50 (mouse MALAT RNA; Adipose): 0.034 µmol/kg
MALAT-1 RNA (% control) (mouse MALAT RNA; Adrenal, 0.4 μmol/kg IV day 0, 4, 8, sacrifice day 12, relative to PBS): 95.2 % control
MALAT-1 RNA (% control) (mouse MALAT RNA; Adrenal, 1.2 μmol/kg IV day 0, 4, 8, sacrifice day 12, relative to PBS): 75.7 % control
MALAT-1 RNA (% control) (mouse MALAT RNA; Adrenal, 3.6 μmol/kg IV day 0, 4, 8, sacrifice day 12, relative to PBS): 64.1 % control
ED50 (mouse MALAT RNA; Adrenal): 1.102 µmol/kg
MALAT-1 RNA (% control) (mouse MALAT RNA; Heart, 0.4 μmol/kg IV day 0, 4, 8, sacrifice day 12, relative to PBS): 76.7 % control
MALAT-1 RNA (% control) (mouse MALAT RNA; Heart, 1.2 μmol/kg IV day 0, 4, 8, sacrifice day 12, relative to PBS): 74.7 % control
MALAT-1 RNA (% control) (mouse MALAT RNA; Heart, 3.6 μmol/kg IV day 0, 4, 8, sacrifice day 12, relative to PBS): 45.7 % control
ED50 (mouse MALAT RNA; Heart): 4.11 µmol/kg
MALAT-1 RNA (% control) (mouse MALAT RNA; Kidney, 0.4 μmol/kg IV day 0, 4, 8, sacrifice day 12, relative to PBS): 50.0 % control
MALAT-1 RNA (% control) (mouse MALAT RNA; Kidney, 1.2 μmol/kg IV day 0, 4, 8, sacrifice day 12, relative to PBS): 46.7 % control
MALAT-1 RNA (% control) (mouse MALAT RNA; Kidney, 3.6 μmol/kg IV day 0, 4, 8, sacrifice day 12, relative to PBS): 24.6 % control
ED50 (mouse MALAT RNA; Kidney): 3.535 µmol/kg
MALAT-1 RNA (% control) (mouse MALAT RNA; Liver, 0.4 μmol/kg IV day 0, 4, 8, sacrifice day 12, relative to PBS): 35.8 % control
MALAT-1 RNA (% control) (mouse MALAT RNA; Liver, 1.2 μmol/kg IV day 0, 4, 8, sacrifice day 12, relative to PBS): 24.1 % control
MALAT-1 RNA (% control) (mouse MALAT RNA; Liver, 3.6 μmol/kg IV day 0, 4, 8, sacrifice day 12, relative to PBS): 7.2 % control
ED50 (mouse MALAT RNA; Liver): 1.578 µmol/kg
MALAT (% control) (human MALAT1 RNA [2]; 12 nM): 86 % control
MALAT (% control) (human MALAT1 RNA [2]; 37 nM): 98 % control
MALAT (% control) (human MALAT1 RNA [2]; 111 nM): 91 % control
MALAT (% control) (human MALAT1 RNA [2]; 333 nM): 63 % control
MALAT (% control) (human MALAT1 RNA [2]; 1000 nM): 60 % control
MALAT (% control) (human MALAT1 RNA [2]; 3000 nM): 36 % control
MALAT (% control) (human MALAT1 RNA [2]; 9000 nM): 29 % control
IC50 (human MALAT1 RNA [2]; MALAT1 RNA, four parameter fit): 0.85 µM
